Results as given in paper PMC11724075, “Small-molecule-induced ERBB4 activation to treat heart failure” (Nature Communications, 2025).
“And” between values parts separate entries of the source, which are not always exact repeats. Equal values may be shown once.

System: mouse model of AngII-induced myocardial fibrosis
Test: AngII-induced myocardial fibrosis mouse model, 1 week, heart mRNA by RT-qPCR
Format: in vivo
Experimental: Four weeks after implantation, cardiac ultrasound was performed, mice were euthanized, and hearts were collected. A similar set-up was used for the 1-week study (Alzet, model 1007D) in male mice (n = 9-10 mice in every group).
RNA was extracted using Nucleospin RNA XS (Macherey-Nagel, 740902.50) according to the manufacturer’s instructions. For cDNA synthesis, total RNA was added to a mixture containing buffer with random hexamers and reverse transcriptase enzyme (TaqMan reverse transcription reagents, Applied biosystems, N8080234) after which samples were incubated for 10 min at 25 °C, 30 min at 48 °C, and 5 min at 95 °C. RT-qPCR was performed on QuantStudio 3 Real-time PCR system (Applied Biosystems) using Taqman Universal PCR Master Mix (Applied Biosystems, 4304437) and Taqman primers according to the manufacturer’s instructions. Settings were as follows: […] followed by 10 min at 95 °C, 40 cycles (45 cycles for ERBB4) of denaturation at 95 °C for 15 s, and 1 min at 60 °C. All reactions were run in duplicate, and all data were normalized against housekeeping genes glyceraldehyde-3-phosphate dehydrogenase (GAPDH), beta-actin (ACTB), or phosphoglycerate kinase 1 (PGK1). Expression levels were calculated using the comparative cycle method and expressed as fold change (FC) to appropriate controls. The following TaqMan primers were used (Thermo Fisher Scientific): GAPDH (Hs02758991_g1, Mm99999915_g1 and Rn01775763_g1), PGK1 (Hs99999906_m1), ID2 (Hs04187239_m1), BMPR1B (Hs01010965_m1), CACNA2D4 (Hs00297782_m1), DUSP2 (Hs00358879_m1), NR4A1 (Hs00374226_m1), SGK1 (Hs00178612_m1), COL1A1 (Mm00801666_g1), COL3A1 (Hs00943809_m1 and Mm00802305_g1), ERBB4 (Hs00955525_m1 and Rn00572447_m1), ACTB (Mm02619580_g1) and ANP (Mm01255747_g1).

[1] = AngII/EF-1, male wild type mice, EF-1 2 mg/kg/day, single animals, 2 mg/kg/day

## O=C(NC1CC1)C(Sc1nc2ccccc2c(=O)n1C1CCCC1)c1ccccc1 (centres unmarked) [EF-1]
[1]
  Col1a1 mRNA in heart, normalized FC compared to Ctrl: 0.89 and 1.45 and 5.23 and 1.1 and 0.7 and 1.4 and 1.83 and 0.45
  Col3a1 mRNA in heart, normalized FC compared to Ctrl: 0.3868 and 1.25 and 2.15 and 0.45 and 0.1877 and 2.4002 and 0.7979 and 0.9965
  Nppa mRNA in heart, normalized FC compared to Ctrl: 0.84 and 6.51 and 3.53 and 3.93 and 1.08 and 3.77 and 5.6 and 2.74 and 3.12
Male wild type mice
  effect on AngII-induced Col1a1 and Col3a1 mRNA expression (in words): significantly reduced
  effect on atrial natriuretic peptide (Nppa) expression (in words): significantly decreased
